{"source": "patent US20240307397A1", "about": "“PHARMACEUTICAL COMPOSITION COMPRISING PI3K AND DNA-PK DUAL INHIBITOR FOR PREVENTING OR TREATING PERIPHERAL T CELL LYMPHOMA” (BORYUNG CORPORATION, priority 2021, published 2024)", "key": {"[1]": {"test_system": "advanced hematologic malignancies (PTCL, DLBCL, MZL, CTCL-MF)", "experiment": "Phase Ia clinical trial: tumor response assessment", "assay_type": "in vivo, humans", "protocol": "1) Tumor response is assessed for both phases la and Ib. The anticancer activity of the test drug is assessed by applying various criteria through imaging tests every two cycles of clinical trials and at the end of therapy (EOT) (optional) (see table 14 for disease assessment criteria below), or for liquid tumors, bone marrow aspirates/biopsies and blood assessments are performed. Tumor response parameters that are assessed include the following: (1) Best overall response: complete response (CR), partial response (PR), stable disease (SD, lasting 12 weeks), or disease progression (DP) Details of the disease assessment criteria and the tools used to determine efficacy parameters are as follows (Table 14). The tumor response (lymphoma (B-cell and T-cell), CLL/SLL, Waldenstrom macroglobulinemia) following administration of the test drug in phases Ia and Ib is assessed using the criteria in table 14. Tumor response parameters vary according to the above applied criteria and may include the followings: The best overall response is defined as the best response across all time points (in the order of CR, PR, SD, and DP) post-treatment. The best overall response (CR, PR, SD, or DP) is summarized by number of subjects and percentages. In the case of best response equal to SD, the minimum duration for SD should be met. For the purpose of calculating an SD rate, the rate will be the percentage (%) of subjects who continue to have SD for at least 12 weeks."}, "CD8+ T cells": {"test_system": "CD8+ T cells", "experiment": "Whole blood flow-cytometry pharmacodynamics, CD8+ T cells", "assay_type": "in vivo, humans", "settings": "as plasma concentration of the test drug increased (FIG. 6B)", "protocol": "(§1) Blood samples for pharmacodynamic analyses of the test drug were collected in phase Ia (dose escalation part). Whole blood samples were evaluated by flow-cytometry after coimmunostaining for CD3^+, CD4^+, CD25^+, CD127low and CD8^+. Through this, we tried to observe the effects of the test drug on regulatory T cells (Tregs) and CD8^+ T cells."}, "[2]": {"test_system": "regulatory T cells (Tregs)", "experiment": "Whole blood flow-cytometry pharmacodynamics, regulatory T cells", "assay_type": "in vivo, humans", "settings": "as plasma concentration of the test drug increased (FIG. 6A)", "protocol": "as §1"}, "[3]": {"experiment": "Plasma pharmacokinetic analyses in clinical trial subjects (C1D1, C1D15)", "assay_type": "in vivo, humans", "excerpt": "1) Plasma concentration-time profile of the test drug (days 1 and 15), urine concentration data (day 15), and derived single dose plasma PK and multiple dose plasma and urine PK parameters (if applicable). • Blood samples are collected according to a predetermined schedule to measure a plasma concentration of the test drug (Table 5). In phase Ia clinical trials, entire urine needs to be collected over each dosing interval according to a pre-determined schedule, starting after dose administration (Table 5).\n• Samples for the determination of the test drug in plasma and urine are analyzed using appropriate validated bioanalytical methods. • Pharmacokinetic parameters are derived using noncompartmental methods with Phoenix® WinNonlin® Version 8.0 or higher (Certara, L.P. Princeton, New Jersey, USA) and/or SAS® Version 9.2 or higher (SAS Institute, Inc., Cary, North Carolina, USA). Actual elapsed time from dosing will be used for the final plasma PK parameter calculations. A minimum of 3 quantifiable postdose concentrations will be required for all calculations. • The PK parameters to be determined for plasma concentration of the test drug on day 1 of cycle 1 and day 15 of cycle 1, if calculable, include but not be limited to the following parameters presented table 6.\nPlasma concentrations and PK parameters of the test drug are listed and summarized by dose, cycle, and clinical trial phase using descriptive statistics.\nOn the day 1 of cycle 1 (C1D1), plasma samples for pharmacokinetic analyses in clinical trial subjects were obtained before and after administration of the test drug (0.5, 1, 1.5, 2, 3, 4, 6, 9, 12 and 24 hours). As a result of the collected pharmacokinetic analyses, it was confirmed that a maximum plasma concentration after a single dose of 50 mg QD, 100 mg QD and 200 mg QD of the test drug ranged […], and a systemic exposure (based on AUC0-24) ranged from 2760 to 21850 ng*h per mL."}, "[4]": {"test_system": "subjects with advanced hematologic malignancies", "experiment": "Phase Ia dose escalation clinical trial: safety, tolerability, DLT and MTD/RP2D", "assay_type": "in vivo", "excerpt": "The phase Ia part (dose escalation) of this clinical trial is designed to determine safety, tolerability, and maximum tolerated dose (MTD)/starting dose (RP2D) for clinical phase Ib/II of the test drug in subjects with relapsed/refractory B-cell lymphoma, chronic lymphocytic leukemia (CLL)/small lymphocytic leukemia (SLL) and peripheral T-cell lymphoma (PTCL).\nA method for escalating a dose during the treatment period (phase Ia part) is as follows. At least of 1 and up to 6 subjects may be enrolled in cohorts 1 and 2. 3 to 6 subjects may be enrolled into subsequent cohorts.\n(2) Cohort 3 and all subsequent cohorts will follow the standard 3+3 design. […] If 1 of the 3 subjects experiences a DLT, that dose level will be expanded to 6 subjects (3 additional subjects will be enrolled). If 2 subjects at a given dose level experience a DLT, the maximum tolerated dose (MTD) will have been exceeded and further accrual to the cohort will be terminated. The next lower dose level will be expanded to 6 subjects or if 6 subjects have already been enrolled and no more than 1 of the 6 experienced a DLT, then this lower dose level will be considered the MTD (FIG. 3).\nThe dose limiting toxicity (DLT) in this clinical trial may include the followings:\n1) Assessed by adverse events, vital signs, electrocardiogram (ECG), clinical laboratory tests, physical examination, ECOG performance status up to the last Safety Follow-up Visit, and baseline medical conditions.\n2) Tolerability assessment includes review of dose interruptions, reductions, and doses administered up to the last Safety Follow-up Visit.\n3) Determination of the maximum tolerated dose (MTD) and the starting dose (RP2D) for clinical phase Ib/II are based on dose limiting toxicity (DLT) during Cycle 1.\nThe number and proportion of subjects experiencing the dose limiting toxicity (DLT) are summarized based on the dose-limiting toxicity evaluable set. […] Estimation of maximum tolerated dose (MTD)/recommended dose for clinical phase Ib/II (RP2D) are based upon the methods for determination of MTD/RP2D provided herein (see 3. Overall design, 2) How to escalate dose of test drug).\nA treatment emergent adverse event (TEAE) is defined as any AE that occurs after the first administration of the test drug through 30 days after the last administration of the test drug, or any event that is present at baseline but worsens in severity. […] All the adverse events and toxicities are graded according to CTCAE (version 5.0). Analysis may include, but is not limited to, the followings: […]"}, "[5]": {"settings": "11 of 12 subjects enrolled in phase Ia assessed"}, "[6]": {"settings": "multiple dosing (C1D15), 50 mg to 200 mg cohort"}, "[7]": {"settings": "of 11 clinical trial subjects, oral QD"}}, "data": [{"compound": "C[C@H](Nc1ncnc2[nH]ccc(=O)c12)c1c(Cl)c2cccc(Cl)c2c(=O)n1-c1ccccc1", "note": "[test drug, 4-[[(1S)-1-(4,8-dichloro-1-oxo-2-phenyl-3-isoquinolyl)ethyl]amino]-8H-pyrido[2,3-d]pyrimidin-5-one]", "values": [{"measurement": "complete response (CR)", "setting": "[1]; 8 subjects diagnosed with PTCL", "value": 1, "unit": "subject"}, {"measurement": "disease control rate (DCR)", "setting": "[1]; 8 subjects diagnosed with PTCL", "value": 87.5, "unit": "%"}, {"measurement": "disease progression (PD)", "setting": "[1]; 8 subjects diagnosed with PTCL", "value": 1, "unit": "subject"}, {"measurement": "partial responses (PR)", "setting": "[1]; 8 subjects diagnosed with PTCL", "value": 2, "unit": "subject"}, {"measurement": "complete response (CR)", "setting": "[1]; [5]", "value": 1, "unit": "subject"}, {"measurement": "disease progression (PD)", "setting": "[1]; [5]", "value": 2, "unit": "subjects"}, {"measurement": "partial response (PR)", "setting": "[1]; [5]", "value": 2, "unit": "subjects"}, {"measurement": "activity in peripheral T-cell lymphoma (PTCL) subjects", "setting": "[1]; PTCL subjects, phase Ia", "value": "preliminary activity"}, {"measurement": "change of CD8+ T cells compared to the baseline value", "setting": "CD8+ T cells", "value": "increased"}, {"measurement": "change of regulatory T cells (Tregs) compared to the baseline value", "setting": "[2]", "value": "decreased"}, {"measurement": "dose dependence of exposure concentration", "setting": "[3]; C1D1, dose range of 50 mg to 200 mg (FIG. 4)", "value": "increased in a dose-dependent manner"}, {"measurement": "maximum plasma concentration", "setting": "[3]; C1D1, single dose of 50, 100 and 200 mg QD, plasma", "value": "≤ 2443", "unit": "ng/mL"}, {"measurement": "increase in exposure based on AUCtau", "setting": "[3]; [6]", "value": "~4.97", "unit": "fold"}, {"measurement": "increase in exposure based on Cmax", "setting": "[3]; [6]", "value": "~2.92", "unit": "fold"}, {"measurement": "dose dependence of exposure concentration", "setting": "[3]; multiple dosing (C1D15), dose range of 50 mg to 200 mg (FIG. 5)", "value": "increased in a dose-dependent manner"}, {"measurement": "accumulation", "setting": "[3]; multiple dosing, dose range of 50 mg to 200 mg", "value": "no accumulation observed"}, {"measurement": "dose limiting toxicities (DLTs) observed", "setting": "[4]; cohort 4, 325 mg QD", "value": "two"}, {"measurement": "serious adverse events rated as grades 3 (severe) to 5 (death)", "setting": "[4]; cohorts 1 to 3 (50, 100, 200 mg QD)", "value": "no serious adverse events"}, {"measurement": "subjects with TEAEs evaluated to be related to the test drug", "setting": "[4]; cohorts 1 to 3 (50, 100, 200 mg QD), 3 of 5 subjects", "value": 60.0, "unit": "%"}, {"measurement": "subjects with treatment-emergent adverse events (TEAEs)", "setting": "[4]; cohorts 1 to 3 (50, 100, 200 mg QD), 4 out of 5 subjects", "value": 80.0, "unit": "%"}, {"measurement": "administration-related deaths", "setting": "[4]; cohorts 1 to 3, 5 subjects", "value": "no administration-related deaths occurred"}, {"measurement": "subjects with TEAE of grade 1 (mild)", "setting": "[4]; cohorts 1 to 3, 5 subjects", "value": 1, "unit": "subject"}, {"measurement": "subjects with TEAE of grade 2 (moderate)", "setting": "[4]; cohorts 1 to 3, 5 subjects", "value": 2, "unit": "subjects"}, {"measurement": "subjects with TEAE of grade 4 (life-threatening)", "setting": "[4]; cohorts 1 to 3, 5 subjects, thrombocytopenia, not related to the test drug", "value": 1, "unit": "subject"}, {"measurement": "dose limiting toxicity (DLT)", "setting": "[4]; dose range of cohorts 1 to 3 (50, 100, 200 mg QD)", "value": "no dose limiting toxicity"}, {"measurement": "tolerability", "setting": "[4]; dose range up to 200 mg QD", "value": "excellent"}, {"measurement": "dose limiting toxicity (DLT)", "setting": "[4]; expansion cohort 200 mg QD, 6 subjects", "value": "No dose limiting toxicity"}, {"measurement": "subjects showing grade 3 skin reaction", "setting": "[4]; [7]", "value": 2, "unit": "subjects"}, {"measurement": "subjects showing hepatotoxicity", "setting": "[4]; [7]", "value": 3, "unit": "subjects"}, {"measurement": "maximum tolerated dose (MTD)", "setting": "[4]; oral, 28-day cycle, phase Ia", "value": 200, "unit": "mg QD"}, {"measurement": "recommended starting dose (RP2D) for clinical phase Ib/II", "setting": "[4]; recommended by the Safety Monitoring Committee", "value": 200, "unit": "mg QD"}, {"measurement": "outcome of adverse events (skin reaction, hepatotoxicity)", "setting": "[4]; upon discontinuation of the test drug", "value": "manageable and recovered to grade 0 or 1"}]}]}
